Laboratory results taken from PubChem BioAssay AID328 (DTP/NCI, 2004).
Several values for one entry are separate records, joined by “and”; a condition that tells them apart may be missing. Equal entries are not always repeated. Inconclusive results and toxic doses are left out.

Test system: BDF1 mice, P388 leukemia ip, median survival T/C
Test: NCI In Vivo Anticancer Drug Screen. Data for tumor model P388 Leukemia (intraperitoneal) in B6D2F1 (BDF1) mice
Settings: endpoint: median survival time, higher = longer survival
Method in brief: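 Steps: implant the tumour, treat one group with compound and another with vehicle, record survival, then divide treated by control.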

[1] = dose: 25.0 mg/kg/injection, schedule: Q01DX009 (ip), vehicle: Klucel (hydroxypropylcellulose) (HPC)
[2] = dose: 50.0 mg/kg/injection, schedule: Q01DX009 (ip), vehicle: Klucel (hydroxypropylcellulose) (HPC)
[3] = dose: 100.0 mg/kg/injection, schedule: Q04DX003 (ip), vehicle: Klucel (hydroxypropylcellulose) (HPC)
[4] = dose: 50.0 mg/kg/injection, schedule: Q04DX003 (ip), vehicle: Klucel (hydroxypropylcellulose) (HPC)
[5] = dose: 200.0 mg/kg/injection, schedule: Q04DX003 (ip), vehicle: Klucel (hydroxypropylcellulose) (HPC)
[6] = dose: 400.0 mg/kg/injection, schedule: Q04DX003 (ip), vehicle: Klucel (hydroxypropylcellulose) (HPC)
[7] = dose: 100.0 mg/kg/injection, schedule: Q04DX002 (ip), vehicle: saline with Tween-80
[8] = dose: 200.0 mg/kg/injection, schedule: Q04DX002 (ip), vehicle: saline with Tween-80
[9] = dose: 400.0 mg/kg/injection, schedule: Q04DX002 (ip), vehicle: saline with Tween-80
[10] = dose: 100.0 mg/kg/injection, schedule: Q01DX009 (ip), vehicle: saline with Tween-80
[11] = dose: 200.0 mg/kg/injection, schedule: Q01DX009 (ip), vehicle: saline with Tween-80

NC(CCSCc1ccc(N(CCCl)CCCl)cc1)C(=O)O (stereo not given)
T/C (dose: 2.0 mg/kg/injection, schedule: Q01DX009 (ip), vehicle: Klucel (hydroxypropylcellulose) (HPC)): 163 % of control | T/C (dose: 3.0 mg/kg/injection, schedule: Q01DX009 (ip), vehicle: Klucel (hydroxypropylcellulose) (HPC)): 186 % of control | T/C (dose: 4.5 mg/kg/injection, schedule: Q01DX009 (ip), vehicle: Klucel (hydroxypropylcellulose) (HPC)): 190 % of control | T/C (dose: 5.0 mg/kg/injection, schedule: Q04DX003 (ip), vehicle: Klucel (hydroxypropylcellulose) (HPC)): 169 % of control | T/C (dose: 7.0 mg/kg/injection, schedule: Q01DX009 (ip), vehicle: Klucel (hydroxypropylcellulose) (HPC)): 183 % of control and 213 % of control | T/C (dose: 8.0 mg/kg/injection, schedule: Q04DX003 (ip), vehicle: Klucel (hydroxypropylcellulose) (HPC)): 184 % of control | T/C (dose: 11.0 mg/kg/injection, schedule: Q01DX009 (ip), vehicle: Klucel (hydroxypropylcellulose) (HPC)): 212 % of control | T/C (dose: 13.0 mg/kg/injection, schedule: Q04DX003 (ip), vehicle: Klucel (hydroxypropylcellulose) (HPC)): 207 % of control | T/C (dose: 14.0 mg/kg/injection, schedule: Q04DX003 (ip), vehicle: alcohol): 230 % of control | T/C (dose: 17.0 mg/kg/injection, schedule: Q01DX009 (ip), vehicle: Klucel (hydroxypropylcellulose) (HPC)): 225 % of control and 272 % of control | T/C (dose: 20.0 mg/kg/injection, schedule: Q04DX003 (ip), vehicle: Klucel (hydroxypropylcellulose) (HPC)): 230 % of control and 204 % of control | T/C (dose: 21.0 mg/kg/injection, schedule: Q04DX003 (ip), vehicle: alcohol): 226 % of control | T/C [1]: 272 % of control | T/C (dose: 30.0 mg/kg/injection, schedule: Q04DX003 (ip), vehicle: Klucel (hydroxypropylcellulose) (HPC)): 272 % of control | T/C (dose: 33.0 mg/kg/injection, schedule: Q04DX003 (ip), vehicle: saline with Tween-80): 168 % of control and 213 % of control | T/C (dose: 37.0 mg/kg/injection, schedule: Q01DX009 (ip), vehicle: Klucel (hydroxypropylcellulose) (HPC)): 272 % of control | T/C (dose: 45.0 mg/kg/injection, schedule: Q04DX003 (ip), vehicle: Klucel (hydroxypropylcellulose) (HPC)): 268 % of control | T/C [2]: 89 % of control | T/C (dose: 50.0 mg/kg/injection, schedule: Q04DX003 (ip), vehicle: saline with Tween-80): 227 % of control and 272 % of control | T/C (dose: 67.0 mg/kg/injection, schedule: Q04DX003 (ip), vehicle: Klucel (hydroxypropylcellulose) (HPC)): 230 % of control | T/C (dose: 75.0 mg/kg/injection, schedule: Q04DX003 (ip), vehicle: saline with Tween-80): 272 % of control and 190 % of control | T/C [3]: 230 % of control and 250 % of control | T/C (dose: 150.0 mg/kg/injection, schedule: Q04DX003 (ip), vehicle: Klucel (hydroxypropylcellulose) (HPC)): 123 % of control | T/C (dose: 375.0 micrograms/kg/injection, schedule: Q04DX003 (ip), vehicle: saline with Tween-80): 120 % of control

C[C@H]1CCC/C=C/[C@@H]2C[C@H](O)C[C@H]2[C@H](O)/C=C/C(=O)O1
T/C (dose: 2.5 mg/kg/injection, schedule: Q01DX009 (ip), vehicle: Klucel (hydroxypropylcellulose) (HPC)): 110 % of control | T/C (dose: 4.0 mg/kg/injection, schedule: Q01DX010 (ip), vehicle: other): 90 % of control | T/C (dose: 5.0 mg/kg/injection, schedule: Q01DX009 (ip), vehicle: Klucel (hydroxypropylcellulose) (HPC)): 106 % of control | T/C (dose: 8.0 mg/kg/injection, schedule: Q01DX010 (ip), vehicle: other): 90 % of control | T/C (dose: 10.0 mg/kg/injection, schedule: Q01DX009 (ip), vehicle: Klucel (hydroxypropylcellulose) (HPC)): 94 % of control | T/C [1]: 100 % of control | T/C [2]: 100 % of control | T/C [4]: 104 % of control | T/C (dose: 100.0 mg/kg/injection, schedule: Q01DX009 (ip), vehicle: Klucel (hydroxypropylcellulose) (HPC)): 90 % of control | T/C [3]: 109 % of control

CC(C)N(C)Cc1ccccc1Sc1ccccc1CN(C)C(C)C
T/C (dose: 100.0 mg/kg/injection, schedule: Q01DX001 (ip), vehicle: other): 108 % of control | T/C (dose: 200.0 mg/kg/injection, schedule: Q01DX001 (ip), vehicle: other): 107 % of control | T/C (dose: 400.0 mg/kg/injection, schedule: Q01DX001 (ip), vehicle: other): 97 % of control

CCOC(=O)C(=O)Cc1cnc2ccccc2n1
T/C [3]: 86 % of control | T/C [5]: 86 % of control | T/C [6]: 90 % of control

C/C(=N\O)c1ccc2ccc3ccccc3c2c1
T/C (dose: 50.0 mg/kg/injection, schedule: Q04DX003 (ip), vehicle: saline sonified): 104 % of control | T/C (dose: 100.0 mg/kg/injection, schedule: Q04DX003 (ip), vehicle: saline sonified): 104 % of control | T/C (dose: 200.0 mg/kg/injection, schedule: Q04DX003 (ip), vehicle: saline sonified): 100 % of control

O=C(Nc1cc(Cl)cc(Cl)c1)C(Cl)Cl
T/C (dose: 50.0 mg/kg/injection, schedule: Q01DX010 (ip), vehicle: carboxymethylcellulose (CMC)): 95 % of control | T/C (dose: 100.0 mg/kg/injection, schedule: Q01DX010 (ip), vehicle: carboxymethylcellulose (CMC)): 110 % of control | T/C (dose: 200.0 mg/kg/injection, schedule: Q01DX010 (ip), vehicle: carboxymethylcellulose (CMC)): 105 % of control

O=C(COc1ccc(Cl)c(Cl)c1)N(Cc1ccccc1)Cc1cccnc1
T/C [4]: 86 % of control | T/C [3]: 95 % of control | T/C [5]: 104 % of control

Cc1cc(=O)oc2cc3oc(N(C)c4ccccc4)nc(=O)c3cc12
T/C [7]: 100 % of control | T/C [8]: 92 % of control | T/C [9]: 102 % of control

COC1/C=C/OC2(C)Oc3c(C)c(O)c4c(O)c5c(c(O)c4c3C2=O)CN(C)C(=N5)/C(C)=C\C=C\C(C)C(O)C(C)C(O)C(C)C(OC(C)=O)C1C (stereo not given)
T/C [7]: 97 % of control | T/C [8]: 97 % of control | T/C [9]: 116 % of control

C=CC[n+]1ccc(/C=N\NC(N)=S)c2ccccc21
T/C (dose: 6.25 mg/kg/injection, schedule: Q01DX009 (ip), vehicle: saline): 111 % of control | T/C (dose: 12.5 mg/kg/injection, schedule: Q01DX009 (ip), vehicle: saline): 101 % of control | T/C (dose: 25.0 mg/kg/injection, schedule: Q01DX009 (ip), vehicle: saline): 106 % of control

Cc1ccc(-n2c(O)c(C=N)c(=O)n(-c3ccc(C)cc3)c2=O)cc1
T/C [10]: 104 % of control | T/C [11]: 104 % of control | T/C (dose: 400.0 mg/kg/injection, schedule: Q01DX009 (ip), vehicle: saline with Tween-80): 95 % of control

CCCCn1c2nc(=O)[nH]c(=O)c-2[n+]([O-])c2ccccc21
T/C (dose: 100.0 mg/kg/injection, schedule: Q01DX001 (ip), vehicle: saline with Tween-80): 108 % of control

Cc1ccc(-c2nc3ccccc3c(=O)n2/N=C/c2ccc(Cl)cc2Cl)cc1
T/C (dose: 50.0 mg/kg/injection, schedule: Q01DX009 (ip), vehicle: saline with Tween-80): 100 % of control | T/C [10]: 89 % of control | T/C [11]: 90 % of control

C=C/C=C/CCC(=O)C=[N+]=[N-]
T/C (dose: 50.0 mg/kg/injection, schedule: Q01DX005 (ip), vehicle: saline with Tween-80): 91 % of control | T/C (dose: 100.0 mg/kg/injection, schedule: Q01DX005 (ip), vehicle: saline with Tween-80): 97 % of control | T/C (dose: 200.0 mg/kg/injection, schedule: Q01DX005 (ip), vehicle: saline with Tween-80): 101 % of control

CC(O)(c1ccc(Cl)cc1)C(c1ccccc1)c1ccccn1 (stereo not given)
T/C (dose: 25.0 mg/kg/injection, schedule: Q01DX009 (ip), vehicle: water): 101 % of control | T/C (dose: 50.0 mg/kg/injection, schedule: Q01DX009 (ip), vehicle: water): 109 % of control | T/C (dose: 100.0 mg/kg/injection, schedule: Q01DX009 (ip), vehicle: water): 86 % of control | T/C (dose: 200.0 mg/kg/injection, schedule: Q01DX009 (ip), vehicle: water): 109 % of control | T/C (dose: 400.0 mg/kg/injection, schedule: Q01DX009 (ip), vehicle: water): 99 % of control

CCOC(=O)C1=C(Nc2ccc([N+](=O)[O-])cc2)CCCC1
T/C (dose: 50.0 mg/kg/injection, schedule: Q01DX009 (ip), vehicle: saline): 87 % of control

O=C(O)CCSCCC(=O)O
T/C (dose: 100.0 mg/kg/injection, schedule: Q01DX001 (ip), vehicle: Klucel (hydroxypropylcellulose) (HPC)): 104 % of control | T/C [3]: 104 % of control | T/C (dose: 200.0 mg/kg/injection, schedule: Q01DX001 (ip), vehicle: Klucel (hydroxypropylcellulose) (HPC)): 108 % of control | T/C [5]: 100 % of control | T/C (dose: 400.0 mg/kg/injection, schedule: Q01DX001 (ip), vehicle: Klucel (hydroxypropylcellulose) (HPC)): 116 % of control | T/C [6]: 113 % of control
